≈ marks a conversion by molar mass, not a printed value. Like-named read-outs stand apart in the source and are kept apart here.
How the values were obtained:
Assay in all cases: Determination of minimal inhibitory concentration of growth (MIC)-1, agar plate dilution method
Assay type in all cases: cell-based
[1] = system: Bacillus subtilis ATCC 6633
Description: (§1) Method: MIC was determined by the agar plate dilution method in accordance with the standard protocol of Japan Society of Chemotherapy (cf. Chemotherapy 29 (1), 76-79, 1981). Each bacterial culture obtained by 18-hour incubation in a sensitivity assay bouillon medium at 37°C was diluted to 10⁶ CFU/ml with the same medium. Using a microplanter, a sensitivity assay agar medium containing the test drug was inoculated with the diluted culture and incubated at 37°C for 18 hours. The MIC value was then determined. As reference drugs, 6-fluoro-1-methyl-4-oxo-7-(1-piperazinyl)-4H-[1,3]thiazeto[3,2-a]quinoline-3-carboxylic acid (referred to as control), ciprofloxacin (CPFX) and ofloxacin (OFLX) were used.

[2] = system: Staphylococcus aureus OWPH 1984 (MRSA); details: Staphylococcus aureus, MRSA, 18 h
Description: as §1

[3] = system: Staphylococcus epider-midis IFO 12993; details: Staphylococcus, IFO12993, 18 h
Description: as §1

[4] = system: Staphylococcus aureus OWPH 2125 (MRSA, PCA^r ); details: Staphylococcus aureus, MRSA, 18 h
Description: as §1

[5] = system: Staphylococcus aureus Smith
Description: as §1

[6] = system: Enterococcus faecalis ATCC 29212
Description: as §1

[7] = system: Pseudomonas aeruginosa IFO 3445; details: Pseudomonas aeruginosa, IFO3445, 18 h
Description: as §1

[8] = system: Micrococcus luteus ATCC 9341
Description: as §1

[9] = system: Staphylococcus aureus 209-P JC-1; details: Staphylococcus aureus, 209P, 18 h
Description: as §1

[10] = system: Proteus vulgaris HX-19; details: Proteus vulgaris, HX19, 18 h
Description: as §1

[11] = system: Escherichia coli KC-14; details: Escherichia coli, KC14, 18 h, 10⁶ CFU/ml, 37°C, read-out: MIC
Description: as §1

[12] = ATCC6633, Bacillus subtilis ATCC 6633, agar plate dilution, 10⁶ CFU/ml, 37°C, 18 hours, read-out: MIC
[13] = Staphylococcus aureus OWPH 1984 (MRSA), agar plate dilution, 10⁶ CFU/ml, 37°C, 18 hours, read-out: MIC
[14] = Staphylococcus epider-midis IFO 12993, agar plate dilution, 10⁶ CFU/ml, 37°C, 18 hours, read-out: MIC
[15] = Staphylococcus aureus OWPH 2125 (MRSA, PCA^r), agar plate dilution, 10⁶ CFU/ml, 37°C, 18 hours, read-out: MIC
[16] = Staphylococcus aureus Smith, agar plate dilution, 10⁶ CFU/ml, 37°C, 18 hours, read-out: MIC
[17] = ATCC29212, Enterococcus faecalis ATCC 29212, agar plate dilution, 10⁶ CFU/ml, 37°C, 18 hours, read-out: MIC
[18] = Pseudomonas aeruginosa IFO 3445, agar plate dilution, 10⁶ CFU/ml, 37°C, 18 hours, read-out: MIC
[19] = ATCC9341, Micrococcus luteus ATCC 9341, agar plate dilution, 10⁶ CFU/ml, 37°C, 18 hours, read-out: MIC
[20] = Staphylococcus aureus 209-P JC-1, agar plate dilution, 10⁶ CFU/ml, 37°C, 18 hours, read-out: MIC
[21] = Proteus vulgaris HX-19, agar plate dilution, 10⁶ CFU/ml, 37°C, 18 hours, read-out: MIC

Compound | MIC [1, 12] [µg/mL] | MIC [2, 13] [µg/mL] | MIC [3, 14] [µg/mL] | MIC [4, 15] [µg/mL] | MIC [5, 16] [µg/mL] | MIC [6, 17] [µg/mL] | MIC [7, 18] [µg/mL] | MIC [8, 19] [µg/mL] | MIC [9, 20] [µg/mL] | MIC [10, 21] [µg/mL] | MIC [11] [µg/mL] | further results
CC1COc2c(N3CCN(C)CC3)c(F)cc3c(=O)c(C(=O)O)cn1c23 (racemic) [OFLX, ofloxacin, reference compound] | 0.1 (≈ 0.277 µM) | 0.39 (≈ 1.08 µM) | 0.39 (≈ 1.08 µM) | 6.25 (≈ 17.3 µM) | 0.2 (≈ 0.553 µM) | 1.56 (≈ 4.32 µM) | 0.78 (≈ 2.16 µM) | 3.13 (≈ 8.66 µM) | 0.39 (≈ 1.08 µM) | 0.05 (≈ 0.138 µM) | 0.05 (≈ 0.138 µM) | 
O=C(O)c1cn(C2CC2)c2cc(N3CCNCC3)c(F)cc2c1=O [CPFX, ciprofloxacin, reference compound] |  |  |  |  |  |  |  |  |  |  | 0.025 (≈ 0.0754 µM) | MIC ([1]; Bacillus subtilis, ATCC6633, 18 h): 0.05 µg/mL (≈ 0.151 µM); MIC [2]: 0.39 µg/mL (≈ 1.18 µM); MIC [3]: 0.39 µg/mL (≈ 1.18 µM); MIC [4]: 12.5 µg/mL (≈ 37.7 µM); MIC ([5]; Staphylococcus aureus, 18 h): 0.2 µg/mL (≈ 0.604 µM); MIC ([6]; Enterococcus faecalis, ATCC29212, 18 h): 1.56 µg/mL (≈ 4.71 µM); MIC [7]: 0.2 µg/mL (≈ 0.604 µM); MIC ([8]; Micrococcus luteus, ATCC9341, 18 h): 0.39 µg/mL (≈ 1.18 µM); MIC [9]: 0.2 µg/mL (≈ 0.604 µM); MIC [10]: 0.025 µg/mL (≈ 0.0754 µM)
COc1c(-c2ccccc2)c(F)cc2c(=O)c(C(=O)O)c3n(c12)CS3 [Example 21, 6-Fluoro-8-methoxy-4-oxo-7-phenyl-4H-[1,3]thiazeto[3,2-a]quinoline-3-carboxylic acid] | 0.025 (≈ 0.07 µM) | 0.025 (≈ 0.07 µM) | 0.05 (≈ 0.14 µM) | 0.39 (≈ 1.09 µM) | 0.05 (≈ 0.14 µM) | 0.39 (≈ 1.09 µM) | 6.25 (≈ 17.5 µM) | 3.13 (≈ 8.76 µM) | 0.05 (≈ 0.14 µM) | 0.39 (≈ 1.09 µM) | 0.78 (≈ 2.18 µM) | 
COc1ccc(-c2cc3c(cc2F)c(=O)c(C(=O)O)c2n3C(C)S2)cc1 (stereo not drawn) [Example 38, 6-Fluoro-7-(4-methoxyphenyl)-1-methyl-4-oxo-4H-[1,3]th-iazeto[3,2-a]quinoline-3-carboxylic acid] | 0.012 (≈ 0.0323 µM) | 0.025 (≈ 0.0673 µM) | 0.1 (≈ 0.269 µM) | 0.2 (≈ 0.539 µM) | 0.025 (≈ 0.0673 µM) | 0.2 (≈ 0.539 µM) | 1.56 (≈ 4.2 µM) | 0.39 (≈ 1.05 µM) | 0.1 (≈ 0.269 µM) | 0.78 (≈ 2.1 µM) | 0.39 (≈ 1.05 µM) | 
CCNc1ccc(-c2cc3c(cc2F)c(=O)c(C(=O)O)c2n3C(C)S2)cc1 (stereo not drawn) [Example 47, 7-(4-Ethylaminophenyl)-6-fluoro-1-methyl-4-oxo-4H-[1,3]thiazeto[3,2-a]quinoline-3-carboxylic acid] | ≤ 0.006 | 0.025 (≈ 0.065 µM) | ≤ 0.006 | 0.05 (≈ 0.13 µM) | ≤ 0.006 | 0.1 (≈ 0.26 µM) | 1.56 (≈ 4.06 µM) | 0.39 (≈ 1.01 µM) | 0.025 (≈ 0.065 µM) | 0.05 (≈ 0.13 µM) | 0.2 (≈ 0.52 µM) | 
CNc1ccc(-c2c(F)cc3c(=O)c(C(=O)O)c4n(c3c2OC)C(C)S4)cc1 (stereo not drawn) [Example 49, 6-Fluoro-8-methoxy-1-methyl-7-(4-methylaminophenyl)-4-oxo-4H-[1,3]thiazeto[3,2-a]quinoline-3-carboxylic acid] | ≤ 0.006 | 0.012 (≈ 0.03 µM) | 0.012 (≈ 0.03 µM) | 0.1 (≈ 0.25 µM) | ≤ 0.006 | 0.025 (≈ 0.0624 µM) | 3.13 (≈ 7.82 µM) | 0.2 (≈ 0.499 µM) | 0.025 (≈ 0.0624 µM) | 0.39 (≈ 0.974 µM) | 0.39 (≈ 0.974 µM) | 
CC1Sc2c(C(=O)O)c(=O)c3cc(F)c(-c4ccc(N)cc4)cc3n21.Cl (stereo not drawn) [Example 55, 7-(4-Aminophenyl)-6-fluoro-1-methyl-4-oxo-4H-[1,3]thiazeto[3,2-a]quinoline-3-carboxylic acid hydrochloride] | ≤ 0.006 | 0.012 | 0.012 | 0.05 | 0.012 | 0.1 | 0.39 | 0.39 | 0.025 | 0.025 | 0.1 | 

More lines, main results first:

MIC [1, 12] [µg/mL] | MIC [2, 13] [µg/mL] | MIC [3, 14] [µg/mL] | MIC [4, 15] [µg/mL] | MIC [5, 16] [µg/mL] | MIC [6, 17] [µg/mL] | MIC [7, 18] [µg/mL] | MIC [8, 19] [µg/mL] | MIC [9, 20] [µg/mL] | MIC [10, 21] [µg/mL] | MIC [11] [µg/mL] | Compound | further results
≤ 0.006 | 0.012 (≈ 0.0352 µM) | 0.025 (≈ 0.0732 µM) | 0.05 (≈ 0.146 µM) | ≤ 0.006 | 0.1 (≈ 0.293 µM) | 0.2 (≈ 0.586 µM) | 0.39 (≈ 1.14 µM) | 0.025 (≈ 0.0732 µM) | 0.05 (≈ 0.146 µM) | 0.1 (≈ 0.293 µM) | CC1Sc2c(C(=O)O)c(=O)c3cc(F)c(-c4ccccc4)cc3n21 (stereo not drawn) [Example 5, 6-Fluoro-1-methyl-4-oxo-7-phenyl-4H-[1,3]thiazeto[3,2-a]quinoline-3-carboxylic acid] | 
≤ 0.006 | 0.025 (≈ 0.0764 µM) | 0.1 (≈ 0.305 µM) | 0.2 (≈ 0.611 µM) | ≤ 0.006 | 0.39 (≈ 1.19 µM) | 0.39 (≈ 1.19 µM) | 6.25 (≈ 19.1 µM) | 0.012 (≈ 0.0367 µM) | 0.025 (≈ 0.0764 µM) | 0.2 (≈ 0.611 µM) | O=C(O)c1c2n(c3cc(-c4ccccc4)c(F)cc3c1=O)CS2 [Example 18, 6-Fluoro-4-oxo-7-phenyl-4H-[1,3]thiazeto[3,2-a]quinoline-3-carboxylic acid] | 
≤ 0.006 | 0.025 (≈ 0.0724 µM) | 0.025 (≈ 0.0724 µM) | 0.2 (≈ 0.579 µM) | ≤ 0.006 | 0.2 (≈ 0.579 µM) | 0.78 (≈ 2.26 µM) | 6.25 (≈ 18.1 µM) | 0.012 (≈ 0.0347 µM) | 0.012 (≈ 0.0347 µM) | 0.1 (≈ 0.29 µM) | O=C(O)c1c2n(c3c(F)c(-c4ccccc4)c(F)cc3c1=O)CS2 [Example 19, 6,8-Difluoro-4-oxo-7-phenyl-4H-[1,3]thiazeto[3,2-a]quinoline-3-carboxylic acid] | 
≤ 0.006 | 0.012 (≈ 0.0334 µM) | 0.012 (≈ 0.0334 µM) | 0.05 (≈ 0.139 µM) | ≤ 0.006 | 0.05 (≈ 0.139 µM) | 0.39 (≈ 1.09 µM) | 0.39 (≈ 1.09 µM) | 0.012 (≈ 0.0334 µM) | 0.1 (≈ 0.278 µM) | 0.2 (≈ 0.557 µM) | CC1Sc2c(C(=O)O)c(=O)c3cc(F)c(-c4ccccc4)c(F)c3n21 (stereo not drawn) [Example 24, 6,8-Difluoro-1-methyl-4-oxo-7-phenyl-4H-[1,3]thiazeto[3,2-a]quinoline-3-carboxylic acid] | 
≤ 0.006 | ≤ 0.006 | ≤ 0.006 | ≤ 0.006 | ≤ 0.006 | 0.05 (≈ 0.129 µM) | 0.78 (≈ 2.02 µM) | 0.1 (≈ 0.259 µM) | 0.012 (≈ 0.0311 µM) | 0.012 (≈ 0.0311 µM) | 0.1 (≈ 0.259 µM) | COc1c(-c2ccc(N)cc2)c(F)cc2c(=O)c(C(=O)O)c3n(c12)C(C)S3 (stereo not drawn) [Example 27, 7-(4-Aminophenyl)-6-fluoro-8-methoxy-1-methyl-4-oxo-4H[1,3]thiazeto[3,2-a]quinoline-3-carboxylic acid] | 
≤ 0.006 | 0.025 (≈ 0.073 µM) | ≤ 0.006 | 0.2 (≈ 0.584 µM) | ≤ 0.006 | 0.1 (≈ 0.292 µM) | 0.2 (≈ 0.584 µM) | 1.56 (≈ 4.56 µM) | 0.012 (≈ 0.0351 µM) | ≤ 0.006 | 0.025 (≈ 0.073 µM) | Nc1ccc(-c2cc3c(cc2F)c(=O)c(C(=O)O)c2n3CS2)cc1 [Example 31, 7-(4-Aminophenyl)-6-fluoro-4-oxo-4H-[1,3]thiazeto[3,2-a]quinoline-3-carboxylic acid] | 
≤ 0.006 | 0.012 (≈ 0.0336 µM) | ≤ 0.006 | 0.05 (≈ 0.14 µM) | ≤ 0.006 | 0.1 (≈ 0.28 µM) | 0.2 (≈ 0.56 µM) | 0.1 (≈ 0.28 µM) | ≤ 0.006 | 0.025 (≈ 0.07 µM) | 0.1 (≈ 0.28 µM) | CC1Sc2c(C(=O)O)c(=O)c3cc(F)c(-c4ccc(O)cc4)cc3n21 (stereo not drawn) [Example 44, 6-Fluoro-7-(4-hydroxyphenyl)-1-methyl-4-oxo-4H-[1,3]thiazeto[3,2-a]quinoline-3-carboxylic acid] | 
≤ 0.006 | 0.012 (≈ 0.0337 µM) | 0.05 (≈ 0.14 µM) | 0.1 (≈ 0.281 µM) | ≤ 0.006 | 0.2 (≈ 0.561 µM) | 0.78 (≈ 2.19 µM) | 0.78 (≈ 2.19 µM) | 0.025 (≈ 0.0702 µM) | 0.025 (≈ 0.0702 µM) | 0.1 (≈ 0.281 µM) | CNc1ccc(-c2cc3c(cc2F)c(=O)c(C(=O)O)c2n3CS2)cc1 [Example 46, 6-Fluoro-7-(4-methylaminophenyl)-4-oxo-4H-[1,3]thiazeto[3,2-a]quinoline-3-carboxylic acid] | 

Reference: patent publication EP0551518A1, “QUINOLINECARBOXYLIC ACID DERIVATIVE” (NIPPON SHINYAKU COMPANY, LIMITED, priority 1990, dated 1992)
